Data: article PMC8901636, “Preclinical studies of Flonoltinib Maleate, a novel JAK2/FLT3 inhibitor, in treatment of JAK2^V617F-induced myeloproliferative neoplasms” (Blood Cancer Journal, 2022)

Legend:
[1] = system: Ba/F3-FLT3-ITD; experiment: MTT assay for cell proliferation; format: cell-based, Murine; settings: Mus musculus; Ba/F3-FLT3-ITD; MTT 72 h; read-out: IC50(μM) ± SD, tumor cell proliferation
Description: (§1) For in vitro inhibition assays, cells were seeded in 96-well culture plates with a density of 15,000–20,000 cells/well after the cells reached 70–90% confluence. […] MTT (3-(4, 5-dimethylthiazol-2-yl)-2, 5-diphenyltetrazolium bromide) (Cat. No. 1334GR001; BioFroxx) assay was conducted in order to examine viability. The IC50 values were fitted using GraphPad Prism 7.0.

[2] = system: Ba/F3-EPOR; experiment: MTT assay for cell proliferation; format: cell-based, Murine; settings: Mus musculus; Ba/F3-EPOR; IL-3-dependent growth; MTT 72 h; read-out: IC50(μM) ± SD, tumor cell proliferation
Description: as §1

[3] = system: JAK2^V617F; experiment: JAK2^V617F bone marrow transplantation (BMT) myelofibrosis model; format: in vivo, BALB/c mice; settings: 30 mg/kg bid p.o.
[4] = system: Ba/F3-FLT3-ITD^D835V; experiment: MTT assay for cell proliferation; format: cell-based, Murine; settings: Mus musculus; Ba/F3-FLT3-ITD^D835V; MTT 72 h; read-out: IC50(μM) ± SD, tumor cell proliferation
Description: as §1

[5] = Bioavailability; settings: dog, in vivo; dogs; data not shown
[6] = system: Ba/F3-JAK2^V617F; experiment: MTT assay for cell proliferation; format: cell-based, Murine; settings: Mus musculus; Ba/F3-JAK2^V617F; MTT 72 h; read-out: IC50(μM) ± SD, tumor cell proliferation
Description: as §1

[7] = system: Ba/F3-FLT3-ITD^F691; experiment: MTT assay for cell proliferation; format: cell-based, Murine; settings: Mus musculus; Ba/F3-FLT3-ITD^F691; MTT 72 h; read-out: IC50(μM) ± SD, tumor cell proliferation
Description: as §1

[8] = system: Molm-13; experiment: MTT assay for cell proliferation; format: cell-based; settings: Homo sapiens; Molm-13; FLT3-ITD expression; MTT 72 h; read-out: IC50(μM) ± SD, tumor cell proliferation
Description: as §1

[9] = system: Ba/F3-EPOR-JAK2^V617F cells; experiment: Ba/F3-EPOR-JAK2^V617F malignancy mouse model; settings: 30 mg/kg bid p.o.
[10] = system: MV-4-11; experiment: MTT assay for cell proliferation; format: cell-based; settings: Homo sapiens, MV4-11; MV-4-11; FLT3-ITD expression; MTT 72 h; read-out: IC50(μM) ± SD, tumor cell proliferation
Description: as §1

[11] = Bioavailability; settings: rat, in vivo; rats; data not shown
[12] = system: Ba/F3-JAK2^V617F cells; experiment: Ba/F3-JAK2^V617F disease model
[13] = system: Ba/F3-JAK2^WT; experiment: MTT assay for cell proliferation; format: cell-based, Murine; settings: Mus musculus; Ba/F3-JAK2^WT; IL-3-dependent growth; MTT 72 h; read-out: IC50(μM) ± SD, tumor cell proliferation
Description: as §1

[14] = system: Ba/F3-EPOR-JAK2^V617F; experiment: MTT assay for cell proliferation; format: cell-based, Murine; settings: Mus musculus; Ba/F3-EPOR-JAK2^V617F; MTT 72 h; read-out: IC50(μM) ± SD, tumor cell proliferation
Description: as §1

[15] = system: HEL; experiment: MTT assay for cell proliferation; format: cell-based; settings: Homo sapiens, JAK2V617F, MTT 72 h, read-out: IC50(μM) ± SD, tumor cell proliferation
Description: as §1

SMILES: Cc1cnc(Nc2ccc(OCCN3CCCC3)cc2)nc1Nc1cccc(S(=O)(=O)NC(C)(C)C)c1 [Fedratinib, reference compound]
- IC50 [1]: 0.21 ± 0.05 µM
- IC50 [2]: 0.97 ± 0.23 µM
- inhibition of splenomegaly ([3]; figure prints it with a minus sign over Spleen Wight (mg)): 90.56%
- median survival time ([3]; vehicle 133.5 days): > 180 days
- IC50 [4]: 0.37 ± 0.04 µM
- bioavailability [5]: 37%
- IC50 [6]: 0.61 ± 0.13 µM
- IC50 [7]: 0.74 ± 0.15 µM
- IC50 [8]: 0.17 ± 0.01 µM
- spleen suppression rate ([9]; 16 days): -40.23%
- median survival time ([9]; vehicle 19 days): 22 days
- IC50 [10]: 0.26 ± 0.11 µM
- bioavailability [11]: 19%
- inhibition of the spleen growth ([12]; 30 mg/kg bid p.o., 22 days, figure prints it with a minus sign over Spleen Weight (mg)): 67.44%
- median survival ([12]; 30 mg/kg bid p.o., vehicle 25 days): 28 days
- body weight during treatment ([12]; any dose): no obvious body weight decrease
- IC50 [13]: 0.68 ± 0.12 µM
- IC50 [14]: 1.71 ± 0.04 µM
- IC50 [15]: 0.77 ± 0.36 µM
